The target of experiment [1] is NAMPT (human, recombinant, C-terminally His-tagged) (Homo sapiens, UniProt P43490). Nature of the experiment: Time-Resolved Fluorescence Resonance Energy Transfer (TR-FRET) Binding Assay of NAMPT. As to conditions: without substrates; 6.8 nM NAMPT, 200 nM probe, 3 hours equilibration. In short, it runs like this:
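11-pt half-log compound series; final 6.8 nM NAMPT, 200 nM OG488 nicotinamide-competitive probe, 1 nM Tb-anti-His Ab, 2% DMSO, HEPES pH 7.5/NaCl/MgCl2/DTT/glycerol buffer. 3 h RT equilibration. Em520/Em495 ratio (Ex 337 nm), control-normalized, 4-parameter fit → IC50.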
(In general: Time-resolved FRET reads energy transfer from a long-lived donor to a nearby acceptor.)

Another experiment deals with PC3 cells. Nature of the experiment: NAMPT Cell Proliferation Assay. It is filed as cell-based. The following applies: Homo sapiens, PC-3, 120 h, 5 days incubation, cell viability by Cell Titer Glo. The method, boiled down:
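Following overnight attachment in RPMI with 10% heat-inactivated FBS, PC3 cells at 500 per well receive compounds spanning 10 μM down to 1×10^−5 μM. Growth is assessed by luminescent viability read after 5 days.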
A general note: ATP-based viability assays read luminescence as a measure of living cells.

The next experiment addresses NAMPT (Homo sapiens, UniProt P43490). The experiment is described as follows: TR-FRET Binding Assay of NAMPT with PRPP. As to conditions: with 200 μM PRPP and 2.5 mM ATP; 2 nM NAMPT, 2 nM probe, 16 hours equilibration. In short, it runs like this: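 TR-FRET probe-displacement binding with 2 nM NAMPT, 2 nM probe and 1 nM Tb-anti-His antibody, run in the presence of 200 μM PRPP and 2.5 mM ATP at 2% DMSO. Equilibrated 16 hours before reading so test compounds could undergo enzymatic modification.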

Broadly, the IC50 is the midpoint of a concentration-inhibition curve.

NAMPT, sequence (P43490 whole entry): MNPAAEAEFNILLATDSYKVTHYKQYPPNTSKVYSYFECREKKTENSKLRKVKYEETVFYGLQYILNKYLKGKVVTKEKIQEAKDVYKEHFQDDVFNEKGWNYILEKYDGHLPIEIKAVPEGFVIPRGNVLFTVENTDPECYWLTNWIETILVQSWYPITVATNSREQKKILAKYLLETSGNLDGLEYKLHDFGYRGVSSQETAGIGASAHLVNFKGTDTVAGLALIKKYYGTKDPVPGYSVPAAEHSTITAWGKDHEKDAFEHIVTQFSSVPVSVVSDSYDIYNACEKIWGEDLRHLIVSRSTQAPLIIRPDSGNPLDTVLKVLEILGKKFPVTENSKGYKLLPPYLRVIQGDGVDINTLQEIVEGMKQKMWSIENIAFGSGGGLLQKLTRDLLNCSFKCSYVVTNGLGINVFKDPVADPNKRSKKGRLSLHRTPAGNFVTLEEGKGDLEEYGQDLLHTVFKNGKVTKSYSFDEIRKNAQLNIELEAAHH
NAMPT (human, recombinant, C-terminally His-tagged), sequence (P43490 whole entry): as above

On to `CC(C)CC(=O)N1CC=C(c2ccc(C(=O)NCc3ccn4ccnc4c3)o2)CC1` [Example 745, N-(imidazo[1,2-a]pyridin-7-ylmethyl)-5-[1-(3-methylbutanoyl)-1,2,3,6-tetrahydropyridin-4-yl]furan-2-carboxamide], for which the IC50 in experiment [1] was found to be 994 nM; in the experiment on PC3 cells, 632 nM; on NAMPT, 0.783 nM.
For `Cc1cc(C(=O)N2CCC(c3ccc(C(=O)NCc4ccn5ccnc5c4)s3)C2)c(C)o1` (stereo not drawn) [Example 778, 5-{1-[(2,5-dimethylfuran-3-yl)carbonyl]pyrrolidin-3-yl}-N-(imidazo[1,2-a]pyridin-7-ylmethyl)thiophene-2-carboxamide], the results for the IC50 (in experiment [1]; in the experiment on PC3 cells; on NAMPT) were 27.6 nM, 0.896 nM and 0.414 nM, respectively.
On the same counts, the results for `O=C(Nc1ccc(C(=O)NCCOc2ccccc2)cc1)Nc1ccc2nccn2c1` [Example 10, 4-[(imidazo[1,2-a]pyridin-6-ylcarbamoyl)amino]-N-(2-phenoxyethyl)benzamide] are 197 nM, 331 nM and 0.457 nM.
For `CCCC(=O)N1CC[C@H](Oc2ccc(C(=O)NCc3ccn4ccnc4c3)cc2)C1` [Example 350, 4-{[(3S)-1-butanoylpyrrolidin-3-yl]oxy}-N-(imidazo[1,2-a]pyridin-7-ylmethyl)benzamide] the same measures were > 10000 nM, 8170 nM and 0.795 nM.
Take `O=C(NCc1ccn2ccnc2c1)Nc1ncc(C(=O)N2CCCCC2)s1` [Example 404, 1-(imidazo[1,2-a]pyridin-7-ylmethyl)-3-[5-(piperidin-1-ylcarbonyl)-1,3-thiazol-2-yl]urea]: the IC50 was 2550 nM in experiment [1], 9410 nM in the experiment on PC3 cells and 0.88 nM on NAMPT.
On the same counts, the results for `O=C(NCc1ccc2nccn2c1)c1cnc(N(CC2CCOCC2)C(=O)C2CCOCC2)s1` [Example 144, N-(imidazo[1,2-a]pyridin-6-ylmethyl)-2-[(tetrahydro-2H-pyran-4-ylcarbonyl)(tetrahydro-2H-pyran-4-ylmethyl)amino]-1,3-thiazole-5-carboxamide] are 9490 nM, 187 nM and 2.92 nM.
Regarding `O=C(NCc1ccc2nccn2c1)c1cnc(N(C[C@@H]2CCCO2)C(=O)C2CCOC2)s1` (stereo partly drawn) [Example 149, N-(imidazo[1,2-a]pyridin-6-ylmethyl)-2-{(tetrahydrofuran-3-ylcarbonyl)[(2S)-tetrahydrofuran-2-ylmethyl]amino}-1,3-thiazole-5-carboxamide], the IC50 in experiment [1] is > 10000 nM; in the experiment with PC3 cells it was 26.6 nM; at NAMPT, 4.86 nM.
On the same counts, the results for `O=C(NCc1ccn2ccnc2c1)c1ccc(C2CCN(C(=O)c3cccc(F)c3)CC2)cc1` [Example 516, 4-[1-(3-fluorobenzoyl)piperidin-4-yl]-N-(imidazo[1,2-a]pyridin-7-ylmethyl)benzamide] are 117 nM, 21.3 nM and 0.266 nM.
For `O=C(NCc1ccn2ccnc2c1)c1ccc(C2CN(C(=O)c3ccccn3)C2)cc1` [Example 661, N-(imidazo[1,2-a]pyridin-7-ylmethyl)-4-[1-(pyridin-2-ylcarbonyl)azetidin-3-yl]benzamide] the same measures were 462 nM, 67.2 nM and 0.641 nM.
On the same counts, the results for `CC(C)S(=O)(=O)N1CCC(c2ccc(C(=O)NCc3ccn4ccnc4c3)cc2)CC1` [Example 683, N-(imidazo[1,2-a]pyridin-7-ylmethyl)-4-[1-(propan-2-ylsulfonyl)piperidin-4-yl]benzamide] are 154 nM, 36.1 nM and 1.19 nM.
For the molecule `CCS(=O)(=O)N1CCC(c2ccc(C(=O)NCc3ccn4ccnc4c3)cc2)C1` (stereo not drawn) [Example 625, 4-[1-(ethylsulfonyl)pyrrolidin-3-yl]-N-(imidazo[1,2-a]pyridin-7-ylmethyl)benzamide], the half-maximal inhibitory concentration (IC50) in experiment [1] was found to be 795 nM; with PC3 cells, 226 nM; on NAMPT it was 0.76 nM.
As for `CC(C)(C)OC(=O)N1CC=C(c2ccc(CC(=O)Nc3ccc4nccn4c3)cc2)CC1` [Example 314, tert-butyl 4-{4-[2-(imidazo[1,2-a]pyridin-6-ylamino)-2-oxoethyl]phenyl}-3,6-dihydropyridine-1(2H)-carboxylate], the IC50 in experiment [1] came out at 1980 nM; with PC3 cells it was 395 nM; at NAMPT, 0.581 nM.
On the same counts, the results for `Cc1noc(C)c1CCC(=O)N(CC1CCCO1)c1ncc(C(=O)NCc2ccc3nccn3c2)s1` (stereo not drawn) [Example 129, 2-{[3-(3,5-dimethyl-1,2-oxazol-4-yl)propanoyl](tetrahydrofuran-2-ylmethyl)amino}-N-(imidazo[1,2-a]pyridin-6-ylmethyl)-1,3-thiazole-5-carboxamide] are 11.6 nM, 2.74 nM and 0.634 nM.
Consider `CC(C)(C)OC(=O)N1CCC(c2ccc(NC(=O)NCc3ccn4ccnc4c3)cc2)C1` (stereo not drawn) [Example 302, tert-butyl 3-(4-{[(imidazo[1,2-a]pyridin-7-ylmethyl)carbamoyl]amino}phenyl)pyrrolidine-1-carboxylate], for which the 50% inhibitory concentration (IC50) in experiment [1] was 160 nM; with PC3 cells it was 19.3 nM; on NAMPT it was 0.435 nM.
For `O=C(NCc1ccn2ccnc2c1)c1ccc(O[C@H]2CCN(C(=O)CC3CCOCC3)C2)cc1` [Example 343, N-(imidazo[1,2-a]pyridin-7-ylmethyl)-4-{[(3S)-1-(tetrahydro-2H-pyran-4-ylacetyl)pyrrolidin-3-yl]oxy}benzamide] the same measures were > 10000 nM, 6530 nM and 0.456 nM.
For `Cc1ccsc1C(=O)N1CCC(c2ccc(C(=O)NCc3ccn4ccnc4c3)cc2)C1` (stereo not drawn) [Example 619, N-(imidazo[1,2-a]pyridin-7-ylmethyl)-4-{1-[(3-methylthiophen-2-yl)carbonyl]pyrrolidin-3-yl}benzamide] the same measures were 79.3 nM, 3.3 nM and 0.616 nM.
For `O=C(NCc1ccn2ccnc2c1)c1ccc(O[C@@H]2CCN(C(=O)[C@H]3CCOC3)C2)cc1` [Example 494, N-(imidazo[1,2-a]pyridin-7-ylmethyl)-4-({(3R)-1-[(3S)-tetrahydrofuran-3-ylcarbonyl]pyrrolidin-3-yl}oxy)benzamide] the same measures were 7560 nM, 1220 nM and 0.712 nM.
With `CC(C)(O)C(=O)N1CC[C@@H](Oc2ccc(NC(=O)NCc3ccn4ccnc4c3)cc2)C1` [Example 334, 1-(4-{[(3R)-1-(2-hydroxy-2-methylpropanoyl)pyrrolidin-3-yl]oxy}phenyl)-3-(imidazo[1,2-a]pyridin-7-ylmethyl)urea], the half-maximal inhibitory concentration (IC50) in experiment [1] stood at 80.9 nM; in the experiment on PC3 cells, 21.9 nM; on NAMPT it was 0.345 nM.
On to `O=C(NCc1ccn2ccnc2c1)c1ccc(-c2cnn(C[C@H]3CCCO3)c2)s1` [Example 395, N-(imidazo[1,2-a]pyridin-7-ylmethyl)-5-{1-[(2R)-tetrahydrofuran-2-ylmethyl]-1H-pyrazol-4-yl}thiophene-2-carboxamide], for which the results for the IC50 (in experiment [1]; in the experiment on PC3 cells; on NAMPT) were 12.5 nM, 6.34 nM and 0.193 nM, respectively.
On the same counts, the results for `O=C(NCc1ccn2ccnc2c1)Nc1ccc(-c2cnn(CC3CCCO3)c2)cc1` (stereo not drawn) [Example 674, 1-(imidazo[1,2-a]pyridin-7-ylmethyl)-3-{4-[1-(tetrahydrofuran-2-ylmethyl)-1H-pyrazol-4-yl]phenyl}urea] are 297 nM, 32.4 nM and 0.535 nM.
On the same counts, the results for `N#Cc1ccccc1C(=O)N1CCC(c2ccc(C(=O)NCc3ccn4ccnc4c3)cc2)CC1` [Example 737, 4-[1-(2-cyanobenzoyl)piperidin-4-yl]-N-(imidazo[1,2-a]pyridin-7-ylmethyl)benzamide] are 70.4 nM, 4.05 nM and 0.612 nM.
On the same counts, the results for `O=C(NCc1ccc2nccn2c1)c1ccc(C2=CCN(C(=O)CC3CCCO3)CC2)cc1` (stereo not drawn) [Example 95, N-(imidazo[1,2-a]pyridin-6-ylmethyl)-4-[1-(tetrahydrofuran-2-ylacetyl)-1,2,3,6-tetrahydropyridin-4-yl]benzamide] are 201 nM, 10.6 nM and 0.991 nM.
For the molecule `O=C(NCc1ccn2ccnc2c1)Nc1ccc(C2=CCN(C(=O)c3ccccc3)CC2)cc1F` [Example 438, 1-[4-(1-benzoyl-1,2,3,6-tetrahydropyridin-4-yl)-2-fluorophenyl]-3-(imidazo[1,2-a]pyridin-7-ylmethyl)urea], the IC50 in experiment [1] amounted to 145 nM; with PC3 cells it was 42.5 nM; on NAMPT it was 0.427 nM.
For `O=C(Nc1ccc(C2CCN(C(=O)CC3CCOC3)CC2)cc1)Nc1ccc2nccn2c1` (stereo not drawn) [Example 110, 1-imidazo[1,2-a]pyridin-6-yl-3-{4-[1-(tetrahydrofuran-3-ylacetyl)piperidin-4-yl]phenyl}urea] the same measures were 423 nM, 202 nM and 0.174 nM.

The values are drawn from US9187472B2 (AbbVie Inc., priority 2012, dated 2015).
